Assay results: ChEMBL document CHEMBL3797103, “Synthesis of a dansyl-labeled inhibitor of 17β-hydroxysteroid dehydrogenase type 3 for optical imaging” (Bioorg Med Chem Lett, 2016); call rule not given here

Columns and labels:
[1] = target: T1, 17-beta-hydroxysteroid dehydrogenase type 3 (Homo sapiens, UniProt P37058); test: Inhibition of 17betaHSD3 (unknown origin) transfected in human LNCAP cells assessed as conversion of [14C]-4-androstene-3,17-dione into [14C]-testosterone after 3 hrs; type: cell-based
T1 sequence (P37058 whole entry): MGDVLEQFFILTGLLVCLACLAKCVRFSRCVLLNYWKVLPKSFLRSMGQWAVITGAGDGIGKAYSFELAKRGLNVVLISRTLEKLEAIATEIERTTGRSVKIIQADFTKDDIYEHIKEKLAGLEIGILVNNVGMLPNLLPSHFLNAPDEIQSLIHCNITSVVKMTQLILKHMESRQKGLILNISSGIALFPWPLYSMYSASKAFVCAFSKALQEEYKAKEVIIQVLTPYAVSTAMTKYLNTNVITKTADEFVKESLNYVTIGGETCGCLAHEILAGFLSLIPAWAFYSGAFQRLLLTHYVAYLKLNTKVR

[2] = system: LNCaP; test: Drug uptake in wild-type human LNCAP cells at 3 to 50 uM after 4 hrs by flow cytometric analysis; type: ADME, cell-based
[3] = system: LNCaP; test: Drug uptake in 17betaHSD3 expressing human LNCAP cells assessed as shape of the cells at 10 uM excited at 350 nm after 4 hrs by fluorescence confocal spinning disk microscopic analysis; type: ADME, cell-based
[4] = system: LNCaP; test: Drug uptake in 17betaHSD3 expressing human LNCAP cells at 3 to 50 uM after 4 hrs by flow cytometric analysis; type: ADME, cell-based
[5] = system: LNCaP; test: Drug localization in 17betaHSD3 expressing human LNCAP cell assessed as localized space around endoplasmic reticulum at 1 uM preincubated for 3 hrs followed by ER tracker addition for the last remaining hour by fluorescent microscopic analysis; type: ADME, cell-based
[6] = Drug localization in 17betaHSD3 expressing human LNCAP cell assessed as localised around lysosomes at 1 uM after 4 hrs by fluorescent microscopic analysis in the presence of lysosome tracker; type: ADME, cell-based
[7] = system: LNCaP; test: Drug uptake in wild type human LNCAP cells assessed as shape of the cells at 10 uM excited at 350 nm after 4 hrs by fluorescence confocal spinning disk microscopic analysis; type: ADME, cell-based
[8] = system: LNCaP; test: Drug uptake in 17betaHSD3 expressing human LNCAP cells assessed as mean fluorescence intensity at 30 uM after 4 hrs by flow cytometric analysis; type: ADME, cell-based

| SMILES | IC50 [1] [µM] | Drug uptake [2] | Drug uptake [3] | Drug uptake [4] | Drug uptake [5] | Drug uptake [6] | Drug uptake [7] | Flu intensity [8] |
| --- | --- | --- | --- | --- | --- | --- | --- | --- |
| C[C@@H]1CN(S(=O)(=O)c2ccccc2C(F)(F)F)[C@@H](C)CN1C[C@@]1(O)CC[C@@]2(C)[C@@H](CC[C@@H]3[C@@H]2CC[C@]2(C)C(=O)CC[C@@H]32)C1 | 0.085 |  |  |  |  |  |  |  |
| C[C@@H]1CN(S(=O)(=O)c2cccc3c(N(C)C)cccc23)[C@@H](C)CN1C[C@@]1(O)CC[C@@]2(C)[C@@H](CC[C@@H]3[C@@H]2CC[C@]2(C)C(=O)CC[C@@H]32)C1 | 0.262 | Active | Active | Active | Active | Active | Not Active | 4 |
